What was measured:
B. cereus ATCC 11778 = assay: NCCLS broth microdilution MIC, B. cereus; type: cell-based, Bacillus cereus; details: organism A = B. cereus ATCC 11778
Text: (§1) Compounds according to this invention were screened for their in vitro activities against selected species of bacteria and fungi. […]

S. aureus ATCC 27660 = assay: NCCLS broth microdilution MIC, S. aureus (MRSA); type: cell-based, Staphylococcus aureus; details: organism F = S. aureus ATCC 27660 (MRSA)
Text: as §1

C. albicans ATCC 38247 = assay: Antifungal MIC, C. albicans; type: cell-based, Candida albicans; details: organism B = C. albicans ATCC 38247
Text: as §1

S. aureus ATCC 13709 = assay: NCCLS broth microdilution MIC, S. aureus (MSSA); type: cell-based, Staphylococcus aureus; details: organism E = S. aureus ATCC 13709 (MSSA)
Text: as §1

E. faecalis ATCC 29212 = assay: NCCLS broth microdilution MIC, E. faecalis; type: cell-based; details: organism C = E. faecalis ATCC 29212
Text: as §1

S. pneumoniae ATCC 49619 = assay: NCCLS broth microdilution MIC, S. pneumoniae ATCC 49619; type: cell-based, Streptococcus pneumoniae; details: organism H = S. pneumoniae ATCC 49619
Text: as §1

[1] = Staphylococcus aureus, read-out: Minimum Inhibitory Concentration (MIC)

| Structure (SMILES) | Minimum Inhibitory Concentration (MIC) (B. cereus ATCC 11778) | Minimum Inhibitory Concentration (MIC) (S. aureus ATCC 27660) | Minimum Inhibitory Concentration (MIC) (C. albicans ATCC 38247) | Minimum Inhibitory Concentration (MIC) (S. aureus ATCC 13709) | Minimum Inhibitory Concentration (MIC) (E. faecalis ATCC 29212) | Minimum Inhibitory Concentration (MIC) (S. pneumoniae ATCC 49619) | MIC (B. cereus ATCC 11778; Bacillus cereus, ATCC11778, read-out: Minimum Inhibitory Concentration (MIC)) [µg/mL] | MIC (S. aureus ATCC 27660; [1]) [µg/mL] | MIC (C. albicans ATCC 38247; Candida albicans, ATCC38247, read-out: Minimum Inhibitory Concentration (MIC)) [µg/mL] | MIC (S. aureus ATCC 13709; [1]) [µg/mL] | MIC (E. faecalis ATCC 29212; Enterococcus faecalis, ATCC29212, read-out: Minimum Inhibitory Concentration (MIC)) [µg/mL] | MIC (S. pneumoniae ATCC 49619; Streptococcus pneumoniae, ATCC49619, read-out: Minimum Inhibitory Concentration (MIC)) [µg/mL] |
| --- | --- | --- | --- | --- | --- | --- | --- | --- | --- | --- | --- | --- |
| CN(C)CCSCCn1cc(NC(=O)c2cc3ccccc3cn2)cc1C(=O)Nc1cc(C(=O)Nc2cc(C(=O)NCCN3CCSCC3)n(C)c2)n(C)c1 [Ib-80] | +++ (+++ = MIC ≦ 4) | +++ (+++ = MIC ≦ 4) | +++ (+++ = MIC ≦ 4) | +++ (+++ = MIC ≦ 4) | +++ (+++ = MIC ≦ 4) | +++ (+++ = MIC ≦ 4) | – | – | – | – | – | – |
| CN(C)CCCn1cc(NC(=O)c2cc(NC(=O)c3cc4ccccc4cn3)cn2C)cc1C(=O)Nc1cc(C(=O)NCCN2CCOCC2)n(C)c1 [Ib-81] | +++ (+++ = MIC ≦ 4) | +++ (+++ = MIC ≦ 4) | + (+ = 12 ≦ MIC ≦ 32) | +++ (+++ = MIC ≦ 4) | +++ (+++ = MIC ≦ 4) | +++ (+++ = MIC ≦ 4) | – | – | – | – | – | – |
| CN(C)CCCn1cc(NC(=O)c2cc(NC(=O)c3cc4ccccc4cn3)c[nH]2)cc1C(=O)Nc1cc(C(=O)NCCN2CCOCC2)n(C)c1 [Ib-82] | +++ (+++ = MIC ≦ 4) | +++ (+++ = MIC ≦ 4) | + (+ = 12 ≦ MIC ≦ 32) | +++ (+++ = MIC ≦ 4) | +++ (+++ = MIC ≦ 4) | +++ (+++ = MIC ≦ 4) | – | – | – | – | – | – |
| CCN(CC)CCNC(=O)c1cc(NC(=O)c2cc(NC(=O)c3cc(NC(=O)c4cc5ccccc5cn4)cn3C)c[nH]2)cn1C [Ib-89] | +++ (+++ = MIC ≦ 4) | +++ (+++ = MIC ≦ 4) | + (+ = 12 ≦ MIC ≦ 32) | +++ (+++ = MIC ≦ 4) | +++ (+++ = MIC ≦ 4) | +++ (+++ = MIC ≦ 4) | – | – | – | – | – | – |
| Cn1cc(NC(=O)c2cc(NC(=O)c3cc4ccccc4cn3)cn2CCCN2CCCCC2)cc1C(=O)Nc1ccc2cnccc2c1 [Ib-90] | +++ (+++ = MIC ≦ 4) | +++ (+++ = MIC ≦ 4) | + (+ = 12 ≦ MIC ≦ 32) | +++ (+++ = MIC ≦ 4) | +++ (+++ = MIC ≦ 4) | +++ (+++ = MIC ≦ 4) | – | – | – | – | – | – |
| Cn1cc(NC(=O)c2cc(NC(=O)c3cc4ccccc4cn3)cn2CCCN2CCCC2)cc1C(=O)Nc1ccc2cnccc2c1 [Ib-91] | +++ (+++ = MIC ≦ 4) | +++ (+++ = MIC ≦ 4) | >32 µg/mL | +++ (+++ = MIC ≦ 4) | +++ (+++ = MIC ≦ 4) | +++ (+++ = MIC ≦ 4) | – | – | – | – | – | – |
| Cn1cc(NC(=O)c2cc(NC(=O)c3cc(NC(=O)c4cc5ccccc5cn4)cn3C)c[nH]2)cc1C(=O)NCCCNC1CCCCC1 [Ib-92] | +++ (+++ = MIC ≦ 4) | +++ (+++ = MIC ≦ 4) | >32 µg/mL | +++ (+++ = MIC ≦ 4) | +++ (+++ = MIC ≦ 4) | +++ (+++ = MIC ≦ 4) | – | – | – | – | – | – |
| Cn1cc(NC(=O)c2ccc(NC(=O)c3cc(NC(=O)c4cc5ccccc5cn4)cn3C)cc2)cc1C(=O)NCCN1CCC(O)CC1 [Ic-8] | +++ (+++ = MIC ≦ 4) | +++ (+++ = MIC ≦ 4) | >32 µg/mL | +++ (+++ = MIC ≦ 4) | +++ (+++ = MIC ≦ 4) | +++ (+++ = MIC ≦ 4) | – | – | – | – | – | – |
| CCN(CC)CCNC(=O)c1cc(NC(=O)c2ccc(NC(=O)c3cc(NC(=O)c4cc5ccccc5cn4)cn3C)cc2)cn1C [Ic-9] | +++ (+++ = MIC ≦ 4) | +++ (+++ = MIC ≦ 4) | >32 µg/mL | +++ (+++ = MIC ≦ 4) | +++ (+++ = MIC ≦ 4) | +++ (+++ = MIC ≦ 4) | – | – | – | – | – | – |
| Cn1cc(NC(=O)c2ccc(NC(=O)c3cc(NC(=O)c4cc5ccccc5cn4)cn3C)cc2)cc1C(=O)NCCN1CCCC1 [Ic-10] | +++ (+++ = MIC ≦ 4) | +++ (+++ = MIC ≦ 4) | >32 µg/mL | +++ (+++ = MIC ≦ 4) | +++ (+++ = MIC ≦ 4) | +++ (+++ = MIC ≦ 4) | – | – | – | – | – | – |
| Cn1cc(NC(=O)c2ccc(NC(=O)c3cc(NC(=O)c4cc5ccccc5cn4)cn3C)cc2)cc1C(=O)NCCCN1CCOCC1 [Ic-11] | >32 µg/mL | +++ (+++ = MIC ≦ 4) | >32 µg/mL | +++ (+++ = MIC ≦ 4) | +++ (+++ = MIC ≦ 4) | +++ (+++ = MIC ≦ 4) | – | – | – | – | – | – |
| CN1CCN(CCNC(=O)c2cc(NC(=O)c3ccc(NC(=O)c4cc(NC(=O)c5cc6ccccc6cn5)cn4C)cc3)cn2C)CC1 [Ic-14] | >32 µg/mL | +++ (+++ = MIC ≦ 4) | >32 µg/mL | +++ (+++ = MIC ≦ 4) | >32 µg/mL | +++ (+++ = MIC ≦ 4) | – | – | – | – | – | – |
| CN(C)CCCNC(=O)c1cc(NC(=O)c2ccc(NC(=O)c3cc(NC(=O)c4cc5ccccc5cn4)cn3C)cc2)cn1C [Ic-15] | >32 µg/mL | +++ (+++ = MIC ≦ 4) | >32 µg/mL | +++ (+++ = MIC ≦ 4) | >32 µg/mL | +++ (+++ = MIC ≦ 4) | – | – | – | – | – | – |
| CN(C)CCNC(=O)c1cc(NC(=O)c2ccc(NC(=O)c3cc(NC(=O)c4cc5ccccc5cn4)cn3C)cc2)cn1C [Ic-16] | +++ (+++ = MIC ≦ 4) | +++ (+++ = MIC ≦ 4) | >32 µg/mL | +++ (+++ = MIC ≦ 4) | +++ (+++ = MIC ≦ 4) | +++ (+++ = MIC ≦ 4) | – | – | – | – | – | – |
| CC1CN(CCNC(=O)c2cc(NC(=O)c3ccc(NC(=O)c4cc(NC(=O)c5cc6ccccc6cn5)cn4C)cc3)cn2C)CC(C)O1 (stereo not drawn) [Ic-17] | +++ (+++ = MIC ≦ 4) | +++ (+++ = MIC ≦ 4) | >32 µg/mL | +++ (+++ = MIC ≦ 4) | +++ (+++ = MIC ≦ 4) | +++ (+++ = MIC ≦ 4) | – | – | – | – | – | – |
| CCN(CCO)CCNC(=O)c1cc(NC(=O)c2ccc(NC(=O)c3cc(NC(=O)c4cc5ccccc5cn4)cn3C)cc2)cn1C [Ic-18] | +++ (+++ = MIC ≦ 4) | +++ (+++ = MIC ≦ 4) | >32 µg/mL | +++ (+++ = MIC ≦ 4) | +++ (+++ = MIC ≦ 4) | +++ (+++ = MIC ≦ 4) | – | – | – | – | – | – |
| Cn1cc(NC(=O)c2cc3ccccc3cn2)cc1C(=O)Nc1cc(C(=O)Nc2ccc3sc(C(=O)NCCN4CCOCC4)cc3c2)n(C)c1 [Id-1] | – | – | – | – | – | – | < 4 | < 4 | > 32 | < 4 | < 4 | < 4 |

— patent US6777425B2, “Isoquinoline compounds having antiinfective activity” (Genesoft Pharmaceuticals, Inc., priority 2001, dated 2004)
